Legend:
human TGR5 receptor = biological target: T1, human TGR5 receptor (Homo sapiens, UniProt Q8TDU6); test: Human TGR5 cAMP production assay; format: cell-based; conditions: human TGR5, luminescent cAMP assay; coded A-D; read-out: Human TGR5 Lum. cAMP Activity (EC50)
T1 construct: host or cells: CHO-K1 (hTGR5-CHO cells)
T1 sequence (Q8TDU6 1-330): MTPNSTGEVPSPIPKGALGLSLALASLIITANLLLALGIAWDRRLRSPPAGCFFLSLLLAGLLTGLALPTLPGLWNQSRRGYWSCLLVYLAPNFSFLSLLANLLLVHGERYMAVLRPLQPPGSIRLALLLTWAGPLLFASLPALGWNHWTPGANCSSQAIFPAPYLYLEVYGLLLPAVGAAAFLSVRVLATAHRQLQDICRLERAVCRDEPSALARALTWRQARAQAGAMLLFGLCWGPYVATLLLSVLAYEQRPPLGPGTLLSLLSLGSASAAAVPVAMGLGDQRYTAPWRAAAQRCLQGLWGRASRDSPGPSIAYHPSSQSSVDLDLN
Summary of the method: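 CHO-K1 cells stably expressing human TGR5, with IBMX and cAMP antibody, were exposed to half-log serially diluted compound for 1 h at room temperature. cAMP measured by enzyme-fragment complementation luminescence (XS+ kit) after overnight incubation; EC50 values reported.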

mouse TGR5 receptor = biological target: T2, mouse TGR5 receptor (Mus musculus, UniProt Q80SS6); test: Mouse TGR5 cAMP production assay (HTRF, Cisbio cAMP HiRange); format: cell-based; conditions: HEK293-EBNA cells overexpressing mouse TGR5, HTRF cAMP HiRange; coded A-D
T2 construct: expressed in transfected cells; host or cells: HEK293-EBNA (293 c18, ATCC CRL10852), Hygromycin B selection
T2 sequence (Q80SS6 1-329): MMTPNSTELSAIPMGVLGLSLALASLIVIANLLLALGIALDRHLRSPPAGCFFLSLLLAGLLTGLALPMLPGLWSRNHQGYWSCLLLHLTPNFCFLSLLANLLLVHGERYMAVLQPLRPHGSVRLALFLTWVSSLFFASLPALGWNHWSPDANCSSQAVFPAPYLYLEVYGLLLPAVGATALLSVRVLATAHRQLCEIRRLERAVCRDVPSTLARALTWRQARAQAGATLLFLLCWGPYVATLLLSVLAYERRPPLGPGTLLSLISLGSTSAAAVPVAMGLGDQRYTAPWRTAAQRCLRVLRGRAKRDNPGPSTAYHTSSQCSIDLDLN
Summary of the method: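 cAMP read by HTRF competition after 1 h room-temperature compound exposure of mouse TGR5-overexpressing HEK293-EBNA cells. Cells were suspended in serum-free DMEM containing 500 μM IBMX; compounds ran as 12-point half-log dilutions in duplicate; EC50 derived.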

SMILES	EC50 (human TGR5 receptor)	EC50 (mouse TGR5 receptor)
Cc1cnccc1-c1cccc([C@H](C)N(CCCCO)S(=O)(=O)c2cccc(Cl)c2C)c1 [Compound 39, (S)-3-chloro-N-(4-hydroxybutyl)-2-methyl-N-(1-(3-(3-methylpyridin-4-yl)phenyl)ethyl)Benzenesulfonamide]	< 100 nM	< 100 nM
CCc1cnccc1-c1cc(OC)cc(C(C)(C)NS(=O)(=O)c2ccccc2C(F)(F)F)c1 [Compound 2CD]	100 to 999 nM	100 to 999 nM
Cc1nccc(-c2cccc(C(C)(C)NS(=O)(=O)c3cccc(C(F)(F)F)c3)c2)c1C [Compound 5AC, N-(2-(3-(2,3-dimethylpyridin-4-yl)phenyl)propan-2-yl)-3-(trifluoromethyl)-benzenesulfonamide]	1000 to 30000 nM	1000 to 30000 nM
CC[C@H](NS(=O)(=O)c1ccccc1C(F)(F)F)c1cccc(-c2ccncc2OC)c1 [Compound 1CD]	< 100 nM	100 to 999 nM
Cc1cnccc1-c1cccc([C@H](CCCC#N)N(CCCC(=O)O)S(=O)(=O)c2cccc(Cl)c2C)c1 [Compound 15AD, (S)-4-(3-chloro-N-(4-cyano-1-(3-(3-methylpyridin-4-yl)phenyl)butyl)-2-methylphenylsulfonamido) butanoic acid]	100 to 999 nM	100 to 999 nM
Cc1cnccc1-c1cccc([C@H](C)N(CCCCN)S(=O)(=O)c2ccccc2C(F)(F)F)c1 [Compound 24, (S)—N-(4-aminobutyl)-N-(1-(3-(3-methylpyridin-4-yl)phenyl)ethyl)-2-(trifluoromethyl)Benzenesulfonamide]	< 100 nM	1000 to 30000 nM
COc1cnccc1-c1cccc(C(C)(C)NS(=O)(=O)c2ccc(F)cc2C(F)(F)F)c1 [Compound 2BD]	< 100 nM	100 to 999 nM
Cc1cnccc1-c1cccc([C@H](CCCC#N)NS(=O)(=O)c2cccc(Cl)c2C)c1 [Compound 2BZ]	< 100 nM	< 100 nM
COc1cnccc1-c1cccc(C(C)(C)NS(=O)(=O)c2cc(C(F)(F)F)ccc2C(F)(F)F)c1 [Compound 2BK]	100 to 999 nM	1000 to 30000 nM
Cc1cnccc1-c1cccc([C@H](C)N(CCCC(=O)O)S(=O)(=O)c2ccccc2C(F)(F)F)c1 [Compound 15, (S)-4-(N-(1-(3-(3-methylpyridin-4-yl)phenyl)ethyl)-2-(trifluoromethyl)phenylsulfonamido)-butanoic acid]	< 100 nM	100 to 999 nM
Cc1cnccc1-c1cccc([C@H](C)NS(=O)(=O)c2cccc(Cl)c2C)c1 [Compound 7]	< 100 nM	< 100 nM
CCc1cnccc1-c1cccc(C(C)(C)NS(=O)(=O)c2ccccc2[N+](=O)[O-])c1 [Compound 5AO, N-(2-(3-(3-ethylpyridin-4-yl)phenyl)propan-2-yl)-2-nitrobenzenesulfonamide]	< 100 nM	< 100 nM
Cc1c(Cl)cccc1S(=O)(=O)N(CCCC(=O)NCCS(=O)(=O)NCC(=O)O)[C@@H](C)c1cccc(-c2ccncc2CO)c1 [Compound 20BS, (S)-2-(4-(3-chloro-N-(1-(3-(3-(hydroxymethyl)pyridin-4-yl)phenyl)ethyl)-2-methylphenylsulfonamido)butanamido)ethanesulfonamido acetic acid]	100 to 999 nM	< 100 nM
CC(C)(NS(=O)(=O)c1ccccc1C(F)(F)F)c1cccc(-c2cnc3nccn3c2)c1 [Compound 5AM, N-(2-(3-(imidazo [1,2-a]pyrimidin-6-yl)phenyl)propan-2-yl)-2-(trifluoromethyl)benzenesulfonamide]	1000 to 30000 nM	1000 to 30000 nM
CCc1cnccc1-c1cccc(C2CN(CC(=O)O)CCN2S(=O)(=O)c2cccc(Cl)c2C)c1 (stereo not drawn) [Compound 51, 2-(4-((3-Chloro-2-methylphenyl)sulfonyl)-3-(3-(3-ethylpyridin-4-yl)phenyl)piperazin-1-yl)acetic acid]	100 to 999 nM	100 to 999 nM
Cc1cnccc1-c1cccc(CCN(CCCC(=O)NCCS(=O)(=O)O)S(=O)(=O)c2cccc(Cl)c2C)c1 [Compound 20BT, 2-(4-(3-chloro-2-methyl-N-(3-(3-methylpyridin-4-yl)phenethyl)phenylsulfonamido)butanamido)ethanesulfonic acid]	100 to 999 nM	1000 to 30000 nM
CCc1cnccc1-c1cc(O)cc(C(C)(C)NS(=O)(=O)c2ccccc2C(F)(F)F)c1 [Compound 22, N-(2-(3-(3-Ethylpyridin-4-yl)-5-hydroxyphenyl)propan-2-yl)-2-(trifluoromethyl)benzenesulfonamide]	< 100 nM	< 100 nM
Cc1c(Cl)cccc1S(=O)(=O)N(CCCC(=O)NCCS(=O)(=O)O)[C@@H](C)c1cccc(-c2ccncc2CO)c1 [Compound 20AP, (S)-2-(4-(3-chloro-N-(1-(3-(3-(hydroxymethyl)pyridin-4-yl)phenyl)ethyl)-2-methylphenylsulfonamido)butanamido)ethanesulfonic acid]	100 to 999 nM	100 to 999 nM
COc1cnccc1-c1cccc(C(C)(C)NS(=O)(=O)c2ccc(Cl)cc2[N+](=O)[O-])c1 [Compound 2BI]	< 100 nM	100 to 999 nM
Cc1cnccc1-c1cccc(C(C)(C)N(CCCN)S(=O)(=O)c2cccc(Cl)c2C)c1 [Compound 23, N-(3-aminopropyl)-3-chloro-2-methyl-N-(2-(3-(3-methylpyridin-4-yl)phenyl)propan-2-yl)benzenesulfonamide]	< 100 nM	1000 to 30000 nM
CCc1cnccc1-c1cccc([C@H](C)N(CCCC(=O)O)S(=O)(=O)c2ccccc2C(F)(F)F)c1 [Compound 15AB, (S)-4-(N-(1-(3-(3-ethylpyridin-4-yl)phenyl)ethyl)-2-(trifluoromethyl)phenylsulfonamido)butanoic acid]	< 100 nM	< 100 nM

Next, values leading:

EC50 (human TGR5 receptor)	EC50 (mouse TGR5 receptor)	SMILES
< 100 nM	< 100 nM	Cc1cnccc1-c1cccc(C2CN(C(=O)CS(=O)(=O)O)CCN2S(=O)(=O)c2cccc(Cl)c2Cl)c1 (stereo not drawn) [Compound 49AC, 2-(4-((2,3-dichlorophenyl)sulfonyl)-3-(3-(3-methylpyridin-4-yl)phenyl)piperazin-1-yl)-2-oxoethanesulfonic acid]
< 100 nM	100 to 999 nM	Cc1cnccc1-c1cccc(C(C)(C)N(CCCNS(=O)(=O)CCN2C(=O)c3ccccc3C2=O)S(=O)(=O)c2cccc(Cl)c2C)c1 [Compound 26A, 3-Chloro-N-(3-((2-(1,3-dioxoisoindolin-2-yl)ethyl)sulfonamido)propyl)-2-methyl-N-(2-(3-(3-methylpyridin-4-yl)phenyl)propan-2-yl)benzenesulfonamide]
< 100 nM	< 100 nM	Cc1cnccc1-c1cccc(C(C)(C)N(CCCNC(=O)NCCCS(=O)(=O)O)S(=O)(=O)c2cccc(Cl)c2C)c1 [Compound 29AC]
100 to 999 nM	< 100 nM	Cc1cnccc1-c1cccc(C2CN(C(=O)CCC(=O)O)CCN2S(=O)(=O)c2cccc(Cl)c2C)c1 (stereo not drawn) [Compound 46AD, 4-(4-((3-chloro-2-methylphenyl)sulfonyl)-3-(3-(3-methylpyridin-4-yl)phenyl)piperazin-1-yl)-4-oxobutanoic acid]
100 to 999 nM	100 to 999 nM	Cc1cnccc1-c1cccc(C2CN(C(=O)CCC(=O)O)CCN2S(=O)(=O)c2ccc(F)cc2C(F)(F)F)c1 (stereo not drawn) [Compound 46AL]
100 to 999 nM	< 100 nM	Cc1cnccc1-c1cccc(C2CN(C(=O)CS(=O)(=O)O)CCN2S(=O)(=O)c2ccccc2C(F)(F)F)c1 (stereo not drawn) [Compound 49AG, 2-(3-(3-(3-methylpyridin-4-yl)phenyl)-4-((2-(trifluoromethyl)phenyl)sulfonyl)piperazin-1-yl)-2-oxoethanesulfonic acid]
< 100 nM	100 to 999 nM	COC(=O)CS(=O)(=O)NCCOCCNC(=O)CCCCN([C@@H](C)c1cccc(-c2ccncc2C)c1)S(=O)(=O)c1cccc(Cl)c1C [Compound 26AC]
< 100 nM	< 100 nM	CCc1cnccc1-c1cccc([C@H](C)N(CCCC(=O)NCCNS(=O)(=O)NCC(=O)O)S(=O)(=O)c2cccc(Cl)c2C)c1 [Compound 38AA, (S)-2-((N-(2-(4-(3-chloro-N-(1-(3-(3-ethylpyridin-4-yl)phenyl)ethyl)-2-methylphenylsulfonamido)butanamido)ethyl)sulfamoyl)amino)acetic acid]
100 to 999 nM	1000 to 30000 nM	Cc1cnccc1-c1cccc(CCN(CCCNC(=O)NCS(=O)(=O)O)S(=O)(=O)c2cccc(Cl)c2C)c1 [Compound 29AD, (3-(3-(3-chloro-2-methyl-N-(3-(3-methylpyridin-4-yl)phenethyl)phenylsulfonamido)propyl)ureido)methanesulfonic acid]

Reference: patent publication US11236055B2 (Venenum Biodesign, LLC, priority 2016, dated 2022)
